PMC12257544, “Fluorescent Isostere (Fluostere) of the Carboxylate: Design of hDHODH Fluorescent Inhibitors as Proof of Concept” (Journal of Medicinal Chemistry, 2025)

How the values were obtained:
[1] = Photophysical characterization (absorption, emission, QY, lifetime); format: physicochemical; settings: in ACN
Procedure: UV–Vis absorption spectra were recorded on a Cary60 spectrometer. Photoemission spectra, luminescence lifetimes, and quantum yields were acquired with a HORIBA Jobin Yvon IBH Fluorolog-TCSPC spectrofluorometer equipped with a Quanta-φ integrating sphere. […] Emission-decay data were collected in 2048 channels to 10000 counts in the peak channel. IRF was measures using colloidal silica suspension in H2O to scatter light. Data were analyzed with the software DAS6 (TCSPC decay-analysis software) using a nonlinear least-squares method to fit of the decay to a sum of exponentials. The value of χ^2, residuals and the autocorrelation function (Durbin-Watson parameter) were used to determine the quality of the fit. For measurements in the presence of hDHODH, 11a was incubated, at 1 μM concentration in TRIS Buffer 0.1 mM (pH 8) with 0.1% DMSO, alone or with different concentrations of recombinant protein ranging from 31.5 to 504 nM concentration. After 5 min incubation UV–Vis absorption spectra were recorded on a Cary60 spectrophotometer and photoemission spectra were acquired with a HORIBA Jobin Yvon IBH Fluorolog-TCSPC spectrofluorometer with excitation λ of 366 nm and maximum of emission at 500 nm; a.u. data were analyzed with GraphPad Prism using One Site – Specific Binding equation.

Experimental pKa = format: physicochemical
hDHODH enzyme GST-tagged = hDHODH enzyme GST-tagged (Homo sapiens, UniProt Q02127); experiment: hDHODH inhibition assay (DCIP reduction)
Chain of hDHODH enzyme GST-tagged (Q02127 whole entry): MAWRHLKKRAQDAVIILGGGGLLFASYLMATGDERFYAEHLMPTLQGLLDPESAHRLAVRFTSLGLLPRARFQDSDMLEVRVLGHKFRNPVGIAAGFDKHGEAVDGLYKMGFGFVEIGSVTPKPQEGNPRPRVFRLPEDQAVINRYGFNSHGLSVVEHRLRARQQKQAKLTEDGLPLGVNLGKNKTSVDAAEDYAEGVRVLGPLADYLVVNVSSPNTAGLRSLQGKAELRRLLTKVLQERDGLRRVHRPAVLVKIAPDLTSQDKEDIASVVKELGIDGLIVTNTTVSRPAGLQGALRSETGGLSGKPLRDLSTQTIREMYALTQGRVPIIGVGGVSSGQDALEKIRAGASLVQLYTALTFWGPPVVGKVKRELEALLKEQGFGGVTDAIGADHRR
Procedure: The enzyme (around 60 nM) was preincubated for 5 min at 37 °C in Tris-buffer solution (pH 8.0) with coenzyme Q10 (100 μM), tested compounds at different concentrations (final DMSO concentration 0.1% v/v), and DCIP (50 μM). The reaction was initiated by addition of DHO (500 μM) and the reduction was monitored at λ = 650 nm. […] Values are means ± SE of three independent experiments.

THP-1 cells = experiment: Co-localization competition assay with Bay2402234 (Manders coefficient); format: cell-based, human; settings: THP-1 cells, 10 μM, 3 h
Procedure: Colocalization between hDHODH inhibitors and mitochondria was quantified using Manders coefficient (Figure D).
THP-1 cells were incubated for 3 h with hDHODHi 11a and Bay240223410 at 10 μM, either alone or in combination. After incubation, the cells were washed and stained with Red-MitoTracker CMXRos (Thermo Fisher, Carlsbad, CA, USA) at a concentration of 100 nM for 30 min at 37 °C. Cells were imaged with a Leica TCS SP8 confocal system (Leica Microsystems) equipped with 4 excitation lasers (405 Diode, Argon, DPSS561, HeNe633). Images were acquired with a HCX PL APO 63×/1.4 NA oil-immersion objective with a resolution of 81 nm × 81 nm and were processed and analyzed with ImageJ software (Rasband, W.S., U.S. National Institutes of Health, Bethesda, […]). In particular, colocalization was analyzed with JACoP plugin and Manders’ coefficient was calculated

Compound	Lifetime [1] [ns]	QY (luminescence quantum yield) [1]	Stokes shift [1] [cm^–1]	λabs [1] [nm]	λem [1] [nm]	pKa (Experimental pKa)	IC50 (hDHODH enzyme GST-tagged) [µM]	fluorescence at the wavelength specific for 11a (THP-1 cells)
CCOC(=O)c1c(O)nn2ccccc12 [Compound 2, Ethyl 2-hydroxypyrazolo[1,5-a]pyridine-3-carboxylate]	7	0.42	5139	313	373	5.39	–	–
Oc1nn2ccccc2c1-c1ccc2cc(-c3ccccc3)ccc2n1 [Compound 12, 3-(6-Phenylquinolin-2-yl)pyrazolo[1,5-a]pyridin-2-ol]	2.3	<0.01	2385	390	430	–	16	–
Oc1nn2ccccc2c1-c1ccc2cc(-c3ccccc3)cnc2c1 [Compound 13, 3-(3-Phenylquinolin-7-yl)pyrazolo[1,5-a]pyridin-2-ol]	3.7	0.74	5288	370	460	–	33	–
Oc1cc2ccccn2n1 [Compound 1, Pyrazolo[1,5-a]pyridin-2-ol]	12	0.21	7567	310	405	~5	–	–
CCn1c(CO)nn(-c2cc(O[C@@H](C)C(F)(F)F)c(C(=O)Nc3c(F)cccc3Cl)cc2F)c1=O [Bay2402234, reference compound]	–	–	–	–	–	–	–	no detectable fluorescence
